# Experimental data reported in patent US11484539B2, “Compounds and their uses for alleviating menopause-associated symptoms” (Estetra SPRL, priority 2018, dated 2022).
# Tested on: post-menopausal women
# Assay: Weekly frequency of moderate to severe VMS, dose-finding study
# Type: in vivo
# Details: for Difference with placebo, LS adjusted mean, absolute change in weekly frequency of moderate to severe VMS / Difference with placebo, LS adjusted mean, relative change in weekly frequency of moderate to severe VMS: 5 mg E4 vs placebo; for LS adjusted mean change from baseline in weekly frequency of moderate to severe VMS / LS adjusted mean relative change (%) from baseline in weekly frequency of moderate to severe VMS: 10 mg E4
# Description: To determine the Minimum Effective Dose (MED), firstly the selection criteria required that patients presented at least 7 moderate to severe VMS/day or at least 50 moderate to severe VMS/week in the week preceding randomization. Secondly, a placebo group was included in a double-blind fashion. Thirdly, the total patient number was such that statistical significance could be obtained between separate arms of the study. Fourthly, the absolute change from baseline in weekly frequency of moderate to severe VMS was taken into account. An analysis of covariance (ANCOVA) was performed based on the untransformed change in weekly frequency of moderate to severe VMS from baseline. Finally, the change in severity from baseline was evaluated. For this, the Severity Scoring System of VMS was documented by the subjects as follows: • a score of Mild (1) for a sensation of heat without sweating; • a score of Moderate (2) for a sensation of heat with sweating/the subject is able to continue activity; and • a score of Severe (3) for a sensation of heat with sweating/which causes cessation of activity.
# Enrolment was approximately 18 months. Individual subject participation was up to 27 weeks: up to 6 weeks pre-screening and washout, up to 4 weeks screening and run-in period, up to 91 days (13 weeks) of E4/placebo treatment followed by 2 weeks (14 days) of progestin therapy and a Follow up visit 1 week after completion of progestin therapy in non-hysterectomised subjects only.
# To define the minimum effective dose (MED) of the oral dose of E4 by evaluating changes in frequency and in severity of moderate to severe vasomotor symptoms (VMS).
# This was a prospective, multicentre, randomised, placebo-controlled, double-blinded, dose-finding study.
# Eligible subjects were hysterectomised and non-hysterectomised post-menopausal women aged 40 to 65 years, inclusive, presenting at least 7 moderate to severe hot flushes/day or at least 50 moderate to severe hot flushes/week.
# The subjects have met all of the following inclusion criteria at the randomization visit. These criteria were assessed during the screening period: • 1. Women aged 40 to 65 years, inclusive, presenting at least 7 moderate to severe hot flushes/day or at least 50 moderate to severe hot flushes/week in the week preceding randomization. • 2. Body Mass Index (BMI) between 18.0 and 35.0 kg/m^2, inclusive. • 3. Post-menopausal status defined as levels of follicle stimulating hormone (FSH) >40 IU/L and: • amenorrhoea for at least 12 consecutive months or, • amenorrhoea for at least 6 months with estradiol (E2)<20 pg/mL or, • at least 6 weeks post-surgical bilateral oophorectomy with or without hysterectomy with a copy of the pathology report or a statement on letterhead from the subject's physician documenting both ovaries were removed is required. • 4. For non-hysterectomised women: intact uterus with bi-layer endometrial thickness […] on TVUS. • 5. Negative pregnancy test. • 6. Good physical and mental health, in the judgement of the Principal Investigator (PI), on the basis of medical, surgical and gynaecological history, physical examination, gynaecological examination, clinical laboratory, and vital signs. • 7. Subject has provided signed and dated written informed consent before admission to the study. • 8. Subject is able to understand and comply with the protocol requirements, instructions, and protocol-stated restrictions. Exclusion Criteria:
# All treatments (Estetrol, hereinafter, E4, [2.5 mg, 5 mg, 10 mg, 15 mg] capsule) were administered once daily (QD) per os for at least 12 consecutive weeks until the last biological assessments (Day 91 maximum) had been performed.
# In order to analyse the data recorded in this study, treatment groups have been compared using an ANCOVA (analysis of covariance) with respect to the change in weekly frequency of moderate to severe VMS from baseline to weeks 4 and 12. […]
# [1] = week 4, ANCOVA with study centre
# [2] = week 12, ANCOVA with study centre
compound,measurement,setting,value
"C[C@]12CC[C@@H]3c4ccc(O)cc4CC[C@H]3[C@@H]1[C@@H](O)[C@@H](O)[C@@H]2O [E4, 1,3,5 (10)-estratrien-3,15alpha,16alpha,17beta-tetrol]","Relative change (% from baseline) in weekly frequency of moderate to severe VMS, mean","5 mg E4 QD per os, week 2",−33%
same,Mean change from baseline in weekly frequency of moderate to severe VMS,"5 mg E4 QD per os, week 3",−24.38
same,"Relative change (% from baseline) in weekly frequency of moderate to severe VMS, mean","5 mg E4 QD per os, week 3",−38%
same,Mean change from baseline in weekly frequency of moderate to severe VMS,"5 mg E4 QD per os, week 4",−27.57
same,"Relative change (% from baseline) in weekly frequency of moderate to severe VMS, mean","5 mg E4 QD per os, week 4",−43%
same,Mean change from baseline in weekly frequency of moderate to severe VMS,"5 mg E4 QD per os, week 5",−30.70
same,"Relative change (% from baseline) in weekly frequency of moderate to severe VMS, mean","5 mg E4 QD per os, week 5",−47%
same,Mean change from baseline in weekly frequency of moderate to severe VMS,"5 mg E4 QD per os, week 6",−38.02
same,"Relative change (% from baseline) in weekly frequency of moderate to severe VMS, mean","5 mg E4 QD per os, week 6",−57%
same,Mean change from baseline in weekly frequency of moderate to severe VMS,"5 mg E4 QD per os, week 7",−38.23
same,"Relative change (% from baseline) in weekly frequency of moderate to severe VMS, mean","5 mg E4 QD per os, week 7",−57%
same,Mean change from baseline in weekly frequency of moderate to severe VMS,"5 mg E4 QD per os, week 8",−38.55
same,"Relative change (% from baseline) in weekly frequency of moderate to severe VMS, mean","5 mg E4 QD per os, week 8",−57%
same,Mean change from baseline in weekly frequency of moderate to severe VMS,"5 mg E4 QD per os, week 9",−39.34
same,"Relative change (% from baseline) in weekly frequency of moderate to severe VMS, mean","5 mg E4 QD per os, week 9",−59%
same,Mean change from baseline in weekly frequency of moderate to severe VMS,"5 mg E4 QD per os, week 10",−39.83
same,"Relative change (% from baseline) in weekly frequency of moderate to severe VMS, mean","5 mg E4 QD per os, week 10",−60%
same,Mean change from baseline in weekly frequency of moderate to severe VMS,"5 mg E4 QD per os, week 11",−41.46
same,"Relative change (% from baseline) in weekly frequency of moderate to severe VMS, mean","5 mg E4 QD per os, week 11",−63%
same,Mean change from baseline in weekly frequency of moderate to severe VMS,"5 mg E4 QD per os, week 12",−40.60
same,"Relative change (% from baseline) in weekly frequency of moderate to severe VMS, mean","5 mg E4 QD per os, week 12",−62%
same,"Difference with placebo, LS adjusted mean, absolute change in weekly frequency of moderate to severe VMS",[1],6.359
same,"Difference with placebo, LS adjusted mean, relative change in weekly frequency of moderate to severe VMS",[1],0.06833
same,"Difference with placebo, LS adjusted mean, absolute change in weekly frequency of moderate to severe VMS","week 4, without site effect",5.781
same,"Difference with placebo, LS adjusted mean, relative change in weekly frequency of moderate to severe VMS","week 4, without site effect",0.05854
same,"Difference with placebo, LS adjusted mean, absolute change in weekly frequency of moderate to severe VMS",[2],3.054
same,"Difference with placebo, LS adjusted mean, relative change in weekly frequency of moderate to severe VMS",[2],0.03978
same,"Difference with placebo, LS adjusted mean, absolute change in weekly frequency of moderate to severe VMS","week 12, without site effect",2.918
same,"Difference with placebo, LS adjusted mean, relative change in weekly frequency of moderate to severe VMS","week 12, without site effect",0.03671
same,LS adjusted mean change from baseline in weekly frequency of moderate to severe VMS,[1],−35.37
same,LS adjusted mean relative change (%) from baseline in weekly frequency of moderate to severe VMS,[1],-54.5%
same,LS adjusted mean change from baseline in weekly frequency of moderate to severe VMS,"week 4, without site effect",−35.87
same,LS adjusted mean relative change (%) from baseline in weekly frequency of moderate to severe VMS,"week 4, without site effect",-55.5%
same,LS adjusted mean change from baseline in weekly frequency of moderate to severe VMS,[2],−45.84
same,LS adjusted mean relative change (%) from baseline in weekly frequency of moderate to severe VMS,[2],-70%
same,LS adjusted mean change from baseline in weekly frequency of moderate to severe VMS,"week 12, without site effect",−46.53
same,LS adjusted mean relative change (%) from baseline in weekly frequency of moderate to severe VMS,"week 12, without site effect",-71.7%
same,Mean change from baseline in weekly frequency of moderate to severe VMS,"10 mg E4 QD per os, week 1",−13.37
same,"Relative change (% from baseline) in weekly frequency of moderate to severe VMS, mean","10 mg E4 QD per os, week 1",−21%
same,Mean change from baseline in weekly frequency of moderate to severe VMS,"10 mg E4 QD per os, week 2",−23.47
same,"Relative change (% from baseline) in weekly frequency of moderate to severe VMS, mean","10 mg E4 QD per os, week 2",−37%
same,Mean change from baseline in weekly frequency of moderate to severe VMS,"10 mg E4 QD per os, week 3",−31.34
same,"Relative change (% from baseline) in weekly frequency of moderate to severe VMS, mean","10 mg E4 QD per os, week 3",−48%
same,Mean change from baseline in weekly frequency of moderate to severe VMS,"10 mg E4 QD per os, week 4",−36.38
same,"Relative change (% from baseline) in weekly frequency of moderate to severe VMS, mean","10 mg E4 QD per os, week 4",−55%
same,Mean change from baseline in weekly frequency of moderate to severe VMS,"10 mg E4 QD per os, week 5",−39.07
same,"Relative change (% from baseline) in weekly frequency of moderate to severe VMS, mean","10 mg E4 QD per os, week 5",−60%
same,Mean change from baseline in weekly frequency of moderate to severe VMS,"10 mg E4 QD per os, week 6",−42.56
same,"Relative change (% from baseline) in weekly frequency of moderate to severe VMS, mean","10 mg E4 QD per os, week 6",−65%
same,Mean change from baseline in weekly frequency of moderate to severe VMS,"10 mg E4 QD per os, week 7",−43.30
same,"Relative change (% from baseline) in weekly frequency of moderate to severe VMS, mean","10 mg E4 QD per os, week 7",−66%
